Data published in US20230329283A1 (priority 2021, published 2023).

Columns and labels:
salmonella [1] = format: cell-based
[2] = test system: four bacterial suspensions (Escherichia coli, Salmonella, Staphylococcus aureus and Clostridium perfringens); format: cell-based; conditions: pepsin 3000 U/mL, pH 2.0, 37° C., 30-180 min, FIG. 5A
[3] = test system: Four indicator bacteria (Escherichia coli, Salmonella, Staphylococcus aureus and Clostridium perfringens); format: cell-based; conditions: FIG. 4
[4] = test system: four bacterial suspensions (Escherichia coli, Salmonella, Staphylococcus aureus and Clostridium perfringens); format: cell-based; conditions: trypsin 250U/mL, pH 8.0, 37° C., 30-180 min, TrSub at MIC, FIG. 5B
[5] = test system: Escherichia coli, Salmonella, Staphylococcus aureus and Clostridium perfringens; format: cell-based; conditions: on Escherichia coli
Clostridium perfringens [6] = format: cell-based; conditions: 16 hours at 37° C., 105 CFU/mL, minimum concentration making the hole clear
salmonella [7] = experiment: Minimum bactericidal concentration (MBC); format: cell-based; conditions: concentration inhibiting growth of 99.9% bacteria, 16h culture on solid medium
[8] = test system: colon bacillus (Escherichia coli); format: cell-based
Clostridium perfringens [9] = format: cell-based; conditions: concentration inhibiting growth of 99.9% bacteria, 16h culture on solid medium
[10] = test system: colon bacillus (Escherichia coli); conditions: concentration inhibiting growth of 99.9% bacteria, 16h culture on solid medium

In the case of “TrSub (EFGAGKAQCAAAWLQCASGGTLGCGGGAVACQNYRQFQCRAA; the amino acid sequence of the recombinant antimicrobial peptide TrSub)”, the “MIC Gram-negative bacteria salmonella” value (salmonella [1]) is reported as 37.5 µg/mL, the “inhibition rate to various bacteria after being treated by pepsin” value ([2]; TrSub at MIC) is reported as “above 80%” and the stability to pepsin [2] is reported as “good stability”. The “change in the inhibition rate of each bacterium after heat treatment” value ([3]; boiling water for 20 min) was “almost no change”, the “inhibition rate after heat treatment” value ([3]; boiling water, 25 min treatment) was “about 80%” and the stability to trypsin [4] was “poor”. For the same substance, the “inhibition rate of the two Gram-positive bacteria after trypsin treatment” value ([4]; Gram-positive bacteria) was “about 80%”, the “antibacterial activity of the expression product” value [5] was “inhibitory effect” and the “MIC Gram-positive bacteria Clostridium perfringens” value (Clostridium perfringens [6]) was 25 µg/mL. The “MBC Gram-negative bacteria salmonella” value (salmonella [7]) was 75 µg/mL, the “MIC Gram-negative bacteria colon bacillus” value [8] was 37.5 µg/mL and the “MBC Gram-positive bacteria Clostridium perfringens” value (Clostridium perfringens [9]) was 25 µg/mL. The “MBC Gram-negative bacteria colon bacillus” value [10] was 37.5 µg/mL.
